Data on five compounds can be found in ChEMBL document CHEMBL1150532, “Syntheses and antifilarial profile of 5-amino and 5,8-diamino-isoquinoline derivatives: A new class of antifilarial agents” (1996).

Common to all, as to type: functional
The test system of test [1] is Acanthocheilonema viteae. Nature of the test: In vitro inhibition of Tubulin content in worms at concentration 1.0 uM.
The subject of test [2] is Acanthocheilonema viteae. As to the kind of experiment: In vitro inhibition of glucose uptake by Acanthocheilonema viteae at concentration 1.0 uM.
For test [3], the system named is Acanthocheilonema viteae. As to the kind of experiment: In vitro increase in lactate production at concentration 1.0 uM.
Test [4] concerns Acanthocheilonema viteae. Nature of the test: Antifilarial activity was measured by percent sterilization of A. viteae at dose 50 mg/kg *5days (i.p.); 0 represents inactive. As to conditions: route intraperitoneal.
The test system of test [5] is Acanthocheilonema viteae. Nature of the test: In vitro inhibition of ATP content in worms at concentration 1.0 uM.
The subject of test [6] is Mastomys natalensis. As to the kind of experiment: Compound was evaluated in vivo for microfilaricidal activity against Acanthocheilonema viteae infection in Mastomys natalensis; 0 represents inactive.
Test [7] concerns Mastomys natalensis. As to the kind of experiment: Compound was evaluated in vivo for microfilaricidal activity against Acanthocheilonema viteae infection in Mastomys natalensis at dose 50 mg/kg *5days (i.p.). The conditions noted are these: route intraperitoneal.
Test [8] relates to Acanthocheilonema viteae. As to the kind of experiment: Antifilarial activity was measured by percent sterilization of A. viteae at dose 50 mg/kg *5days (i.p.). The conditions noted are these: route intraperitoneal.
For test [9], the system named is Mastomys natalensis. As to the kind of experiment: Compound was evaluated in vivo for microfilaricidal activity against Acanthocheilonema viteae infection in Mastomys natalensis at dose 50 mg/kg/5days (i.p.); 0 represents inactive. The conditions noted are these: route intraperitoneal.
The subject of test [10] is Mastomys natalensis. Nature of the test: Compound was evaluated in vivo for microfilaricidal activity against Acanthocheilonema viteae infection in Mastomys natalensis at dose 50 mg/kg/5days (i.p.). The conditions noted are these: route intraperitoneal.
Test [11] deals with Mastomys natalensis. Nature of the test: Compound was evaluated in vivo for microfilaricidal activity against Acanthocheilonema viteae infection in Mastomys natalensis.
For test [12], the system named is Acanthocheilonema viteae. As to the kind of experiment: Antifilarial activity was measured by percent sterilization of A. viteae at dose 50 mg/kg/5days (i.p.); 0 represents inactive. The conditions noted are these: route intraperitoneal.
Test [13] has as its system Mastomys natalensis. As to the kind of experiment: Compound was evaluated in vivo for microfilaricidal activity against Acanthocheilonema viteae infection in Mastomys natalensis at dose 350 mg/kg/5 days (i.p.). As to conditions: route intraperitoneal.

`O=[N+]([O-])c1ccc(N2CCOCC2)c2ccncc12` showed a Tubulin content in test [1] of 38.5 pmol/mg. The same compound had a Glucose uptake in test [2] of 6.15 µM/mg. This compound returned a Lactate production in [3] of 7.19 µM/mg. In test [4], this compound displayed a Sterility of 0%. Also, in test [5], the ATP content is 39.1 pmol/mg. Besides, the Activity stood at 0 in test [6] and 81 in [7].

In test [1], `OC1CC1Nc1cccc2cnccc12` (stereo unspecified) showed a Tubulin content of 70.2 pmol/mg. The same compound returned a Glucose uptake in [2] of 6.67 µM/mg. In test [3], the Lactate production came to 7.42 µM/mg. Also, the Sterility in test [8] is 31%. Also, the ATP content in test [5] was found to be 108 pmol/mg. The Activity in test [9] and in test [6] was 0 throughout.

`O=C1CN(c2cccc3cnccc23)C2CC2O1` (stereo unspecified) displayed a Tubulin content in test [1] of 35.4 pmol/mg. In addition, the Glucose uptake in test [2] is 6.09 µM/mg. Also, the Lactate production in test [3] is 6.42 µM/mg. In [4], this compound gave a Sterility of 0%. Further, in [5], the ATP content came out at 74.2 pmol/mg. The Activity is reported as 34 in test [10] and 0 in test [11].

Consider `Clc1ccc2c(Nc3ccc(N4CCOCC4)c4ccncc34)ccnc2c1`, for which, in [12], the Sterility came to 0%. In [1], this compound gave a Tubulin content of 45.1 pmol/mg. The compound also displayed a Glucose uptake in test [2] of 6.26 µM/mg. The same compound displayed a Lactate production in test [3] of 7.3 µM/mg. The compound also came in with an ATP content in test [5] of 37.9 pmol/mg. Moreover, the Activity in test [10] worked out at 76; in test [11], 60.

The compound `CCN(CC)C(=O)N1CCN(C)CC1.O=C(O)CC(O)(CC(=O)O)C(=O)O` [DIETHYLCARBAMAZINE CITRATE] gave a Sterility in test [12] of 0%. In addition, the figures for the Activity in [9] and in test [13] were 0 and 90, respectively.
